According to patent US20020002294A1, “Estrogenic compounds as antiangiogenic agents” (priority 1997, published 2002):

System: corneal neovascularization
Test: Mouse Corneal Micropocket Assay
Format: in vivo, mice
Conditions: 150 mg/kg, daily oral, 5 days
Experimental: Five- to 7-week-old SCID female mice were obtained from Massachusetts General Hospital (Boston, Mass.), Immunocompetent 7-9-week-old female C57BL/6 mice were obtained from ARCH Technical Services, Children's Hospital (Boston, Mass.). All animal studies were conducted according to protocols approved by the Animal Ethics Committee of Children's Hospital. Animals were anesthetized in a methoxyflurane (Pittman-Moore, Mundelein, Ill.) chamber prior to all procedures and were observed until fully recovered. Animals were sacrificed by a lethal dose of methoxyflurane.
Mouse Corneal Micropocket Assay To study the effect of microtubule inhibitors on angiogenesis in vivo, a model of angiogenesis in the mouse cornea was used in […] mice as described previously (Kenyon, B. B., Voest, E. E., Chen, C. C., Folkman, J., and D'Amato, R. J. A model of angiogenesis in the mouse cornea. Invest. Ophthalmol. & Visual Sci., 76: 1625-1632, 1996). In brief, after animals were anesthetized, corneal micropockets were created in both eyes with a modified von Graefe cataract knife. Into each pocket, a 0.4 mm ×0.4 mm×0.2 mm sucrose aluminum sulfate (Bukh Meditee, Copenhagen, Denmark) pellet coated with hydron polymer type NCC (IHN Sciences, New Brunswick, N.J.) containing 80 ng of bFGF or 160 ng of human recombinant […] (gift from Reprogenesis, Cambridge, Mass.) was implanted 1.0-1.2 mm from the limbal vessels (bFGF experiments) or 0.5-0.7 mm from the limbus (VEGF experiments). Erythromycin ointment (E. Fougera, Melville, N.Y.) was applied to each operated eye. The sucralfate acts to stabilize the growth factor and to slow its release from the hydron. Before testing each drug in this assay, we found the maximal dose that could be administered daily for 5 consecutive days without producing signs of toxicity (i.e., no hair loss, diarrhea, infection, lethargy, or weight loss). The treated groups received daily oral administration for 5 consecutive days of the stated dosage of 2-ME or a derivative thereof suspended in 0.5 g/100 ml of carboxymethylcellulose.
Treatment was started on the day of pellet implantation. […] For this purpose, the eyes of the mice were examined by slit-lamp biomicroscopy. Area of corneal neovascularization was calculated using a modified formula for a half-ellipse: Area (mm^2)=[π×clock hours×length (mm)×0.2 mm]. This formula provides the most accurate approximation of the area of neovascularization that grows toward the pellet. (Kenyon, B. B., Voest, E. E., Chen, C. C., Folkman, J., and D'Amato, R. J. A model of angiogenesis in the mouse cornea. Invest. Ophthalmol. & Visual Sci., 76: 1625-1632, 1996).

## COc1cc2c(cc1O)CCC1C2CCC2(C)C(O)CCC12 (stereo not shown) [NSC 659853, 2-Methoxyestradiol]
  inhibition in corneal pocket assay: 25%
